Measured values published in ChEMBL document CHEMBL1143466, “Conformationally constrained N1-arylsulfonyltryptamine derivatives as 5-HT6 receptor antagonists” (Bioorg Med Chem Lett, 2005).

What was measured:
[1] = target: T1, 5-hydroxytryptamine receptor 6 (Homo sapiens, UniProt P50406); assay: Maximum effective concentration for cAMP production in HeLa cells expressing human 5-HT6 receptors; assay type: functional, cell-based
[2] = target: T1, 5-hydroxytryptamine receptor 6; assay: Effective concentration for cAMP production in HeLa cells expressing human 5-HT6 receptors; assay type: functional, cell-based
[3] = target: T1, 5-hydroxytryptamine receptor 6; assay: Displacement of [3H]LSD from cloned human 5-hydroxytryptamine 6 receptor expressed in HeLa cells; assay type: cell-based
[4] = target: T1, 5-hydroxytryptamine receptor 6; assay: Maximum inhibition of cAMP production in HeLa cells expressing human 5-HT6 receptors; assay type: functional, cell-based
[5] = target: T1, 5-hydroxytryptamine receptor 6; assay: Inhibition of cAMP production in HeLa cells expressing human 5-HT6 receptor; assay type: functional, cell-based

T1 sequence (P50406 whole entry): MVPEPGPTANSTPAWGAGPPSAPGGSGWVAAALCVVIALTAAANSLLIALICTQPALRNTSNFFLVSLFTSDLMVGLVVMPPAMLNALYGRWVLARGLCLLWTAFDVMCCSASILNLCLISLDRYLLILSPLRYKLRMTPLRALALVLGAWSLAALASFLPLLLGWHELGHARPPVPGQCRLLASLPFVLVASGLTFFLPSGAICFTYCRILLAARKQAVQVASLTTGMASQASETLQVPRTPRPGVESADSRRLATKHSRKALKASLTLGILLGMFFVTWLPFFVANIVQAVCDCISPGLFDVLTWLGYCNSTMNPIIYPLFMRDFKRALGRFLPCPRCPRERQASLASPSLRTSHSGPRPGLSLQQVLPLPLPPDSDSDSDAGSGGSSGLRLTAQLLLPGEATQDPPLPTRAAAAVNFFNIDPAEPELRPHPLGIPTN

Row | SMILES | Emax [1] [%] | EC50 [2] [nM] | Ki [3] [nM] | Imax [4] [%] | IC50 [5] [nM]
1 | O=S(=O)(c1ccccc1F)n1cc(C2=CCCNC2)c2ccccc21 | 52 | 51 | 9.2 | – | –
2 | O=S(=O)(c1cccs1)n1cc(C2CCCNC2)c2ccccc21 (stereo not given) | – | – | 9.8 | – | –
3 | CN1CCC[C@H]1Cc1cn(S(=O)(=O)c2ccc(Cl)c(Cl)c2)c2ccccc12 | – | – | 12 | 86.5 | 7.3
4 | O=S(=O)(c1cccc(Cl)c1)n1c2c(c3ccccc31)CCNC2 | – | – | 41.7 | – | –
5 | Cc1nc(N)sc1S(=O)(=O)n1cc(C2CCN(Cc3ccccc3)C2)c2ccccc21 (stereo not given) | – | – | – | 97 | 110
6 | O=S(=O)(c1ccc(Cl)c(Cl)c1)n1cc(C[C@@H]2CCCN2)c2ccccc21 | – | – | 49 | – | –
7 | O=S(=O)(c1ccccc1Br)n1cc(C2CCN(Cc3ccccc3)C2)c2ccccc21 (stereo not given) | – | – | – | 62 | 21
8 | O=S(=O)(c1cccc(Cl)c1)n1cc(C2=CCCNC2)c2ccccc21 | – | – | 14 | – | –
9 | O=S(=O)(c1ccc(F)c(F)c1)n1cc(C2CCCNC2)c2ccccc21 (stereo not given) | 60.5 | 66 | – | – | –
10 | CN1CCC(c2cn(S(=O)(=O)c3ccc(Cl)cc3)c3ccccc23)C1 (stereo not given) | – | – | – | 86.5 | 85.5
11 | Cc1ccc(S(=O)(=O)n2c3c(c4ccccc42)CCNC3)cc1 | – | – | 271 | – | –
12 | O=S(=O)(c1ccc(F)c(F)c1)n1cc(C2=CCCNC2)c2ccccc21 | – | – | 26 | – | –
13 | O=S(=O)(c1ccc(Cl)s1)n1cc(C2CCCNC2)c2ccccc21 (stereo not given) | 93 | 58.5 | – | – | –
14 | O=S(=O)(c1ccccc1Br)n1cc(C[C@@H]2CCCN2)c2ccccc21 | – | – | 43 | – | –
15 | O=S(=O)(c1ccc(F)cc1)n1cc(C2=CCCNC2)c2ccccc21 | 62 | 345 | 10.5 | – | –
16 | O=S(=O)(c1ccccc1)n1cc(C[C@@H]2CCCN2)c2ccccc21 | – | – | 27.7 | – | –
17 | Nc1ccc(S(=O)(=O)n2c3c(c4ccccc42)CCNC3)cc1 | – | – | 116 | – | –
18 | Cc1ccc(S(=O)(=O)n2cc(C3CCN(Cc4ccccc4)C3)c3ccccc32)cc1 (stereo not given) | – | – | – | 72 | 123
19 | O=S(=O)(c1cccc(Cl)c1Cl)n1cc(C2=CCCNC2)c2ccccc21 | – | – | 20 | – | –
20 | O=S(=O)(c1ccccc1)n1cc(C2CCCNC2)c2ccccc21 (stereo in doubt) [listing 1 of 2 here] | 100 | – | – | – | –
21 | CN1CCC[C@H]1Cc1cn(S(=O)(=O)c2ccc(Cl)s2)c2ccccc12 | – | – | 4 | 99 | 1
22 | Cc1nn(C)c(Cl)c1S(=O)(=O)n1cc(C2=CCCNC2)c2ccccc21 | 50 | 89.5 | 8 | – | –
23 | COc1ccc(S(=O)(=O)n2cc(C[C@@H]3CCCN3C)c3ccccc32)cc1OC | – | – | 8 | 100 | 0.8
24 | O=S(=O)(c1ccccc1C(F)(F)F)n1cc(C2=CCCNC2)c2ccccc21 | – | – | 21.7 | – | –
25 | CN1CCC[C@H]1Cc1cn(S(=O)(=O)c2ccc(N)cc2)c2ccccc12 | – | – | 3 | 100 | 24.5

Row | SMILES | Emax [1] [%] | EC50 [2] [nM] | Ki [3] [nM] | Imax [4] [%] | IC50 [5] [nM]
26 | O=S(=O)(c1ccccc1)n1cc(C2CCCNC2)c2ccccc21 (stereo in doubt) [listing 2 of 2 here] | – | 36 | 1 | – | –
27 | COc1ccc(S(=O)(=O)n2cc(C3=CCCNC3)c3ccccc32)cc1 | – | – | 16 | – | –
28 | CN1CCC[C@H]1Cc1cn(S(=O)(=O)c2ccc(I)cc2)c2ccccc12 | – | – | 3 | 99.5 | 49.5
29 | CN1CCC[C@H]1Cc1cn(S(=O)(=O)c2ccc(Br)s2)c2ccccc12 | – | – | 3 | 96 | 112
30 | CN1CCC(c2cn(S(=O)(=O)c3ccccc3Br)c3ccccc23)C1 (stereo not given) | – | – | – | 98.5 | 53.3
31 | O=S(=O)(c1ccccc1)n1cc(C2CCCNC2)c2ccccc21 (single isomer, unassigned; enantiomer 1) [listing 1 of 2 here] | 0 | – | – | – | –
32 | O=S(=O)(c1ccccc1)n1cc(C2CCCNC2)c2ccccc21 (racemic) [listing 1 of 2 here] | – | 24 | – | – | –
33 | O=S(=O)(c1cccc(C(F)(F)F)c1)n1cc(C2=CCCNC2)c2ccccc21 | – | – | 44.7 | – | –
34 | O=S(=O)(c1ccccc1)n1c2c(c3ccccc31)CCNC2 | – | – | 253 | – | –
35 | O=S(=O)(c1ccc(Cl)s1)n1cc(C[C@@H]2CCCN2)c2ccccc21 | – | – | 25 | – | –
36 | O=S(=O)(c1cccc(Cl)c1)n1cc(C[C@@H]2CCCN2)c2ccccc21 | – | – | 22 | – | –
37 | O=S(=O)(c1ccc(Cl)s1)n1cc(C2=CCCNC2)c2ccccc21 | – | – | 22.7 | – | –
38 | COc1ccc(S(=O)(=O)n2cc(C[C@@H]3CCCN3)c3ccccc32)cc1 | – | – | 40 | – | –
39 | O=S(=O)(c1ccccc1Cl)n1cc(C2=CCCNC2)c2ccccc21 | – | – | 13 | – | –
40 | O=S(=O)(c1cccc(F)c1)n1cc(C2=CCCNC2)c2ccccc21 | 51.5 | 270 | 8.5 | – | –
41 | CN1CCC[C@H]1Cc1cn(S(=O)(=O)c2ccc(Cl)cc2)c2ccccc12 | – | – | 7 | 86 | 8.2
42 | O=S(=O)(c1ccccc1)n1cc(C2=CCCNC2)c2ccccc21 | 41 | 159 | 4.6 | – | –
43 | CN1CCC[C@H]1Cc1cn(S(=O)(=O)c2ccccc2)c2ccccc12 | – | – | 5 | 87 | 81.4
44 | Cc1nc(C)c(S(=O)(=O)n2cc(C3=CCCNC3)c3ccccc32)o1 | – | – | 58 | – | –
45 | O=S(=O)(c1ccccc1)n1cc(C2CCCNC2)c2ccccc21 (racemic) [listing 2 of 2 here] | 100 | – | – | – | –
46 | Cc1ccc(S(=O)(=O)n2cc(C[C@@H]3CCCN3C)c3ccccc32)cc1 | – | – | 5 | 78.5 | 56.3
47 | CN1CCC[C@H]1Cc1cn(S(=O)(=O)c2ccccc2Br)c2ccccc12 | – | – | 7 | 87.5 | 76.5
48 | O=S(=O)(c1ccc(Cl)cc1)n1cc(C[C@@H]2CCCN2)c2ccccc21 | – | – | 49 | – | –
49 | CN1CCC[C@@H]1Cc1cn(S(=O)(=O)c2ccc(Br)s2)c2ccccc12 | 76.5 | 103 | 4 | – | –
50 | Cc1c(S(=O)(=O)n2cc(C3CCCNC3)c3ccccc32)sc2ccc(Cl)cc12 (stereo not given) | – | – | 44 | – | –

Row | SMILES | Emax [1] [%] | EC50 [2] [nM] | Ki [3] [nM] | Imax [4] [%] | IC50 [5] [nM]
51 | O=S(=O)(c1ccc(F)cc1F)n1cc(C2=CCCNC2)c2ccccc21 | – | – | 13 | – | –
52 | O=S(=O)(c1ccc(Cl)c(Cl)c1)n1cc(C2CCN(Cc3ccccc3)C2)c2ccccc21 (stereo not given) | – | – | – | 63 | 61
53 | CN1CCC[C@@H]1Cc1cn(S(=O)(=O)c2ccccc2)c2ccccc12 | – | – | 8 | 75 | 0.6
54 | COc1ccc(S(=O)(=O)n2cc(C3CCCNC3)c3ccccc32)cc1 (stereo not given) | – | – | – | 65.5 | 7.3
55 | Nc1ccc(S(=O)(=O)n2cc(C[C@@H]3CCCN3)c3ccccc32)cc1 | – | – | 7 | 72.9 | 7.6
56 | Nc1ccc(S(=O)(=O)n2cc(C3CCN(Cc4ccccc4)C3)c3ccccc32)cc1 (stereo not given) | – | – | – | 97 | 25
57 | CN1CCC(c2cn(S(=O)(=O)c3ccc(F)cc3)c3ccccc23)C1 (stereo not given) | – | – | – | 83.5 | 52.5
58 | O=S(=O)(c1ccc(Cl)cc1)n1cc(C2=CCCNC2)c2ccccc21 | – | – | 22 | – | –
59 | Cc1ccc(S(=O)(=O)n2cc(C[C@@H]3CCCN3)c3ccccc32)cc1 | – | – | 33 | – | –
60 | O=S(=O)(c1ccc(I)cc1)n1cc(C[C@@H]2CCCN2)c2ccccc21 | – | – | 34 | – | –
61 | CN1CCC(c2cn(S(=O)(=O)c3ccc(I)cc3)c3ccccc23)C1 (stereo not given) | – | – | – | 93.5 | 43.6
62 | CN1CCC(c2cn(S(=O)(=O)c3ccc(N)cc3)c3ccccc23)C1 (stereo not given) | – | – | – | 89.5 | 15.5
63 | Cc1c(S(=O)(=O)n2cc(C[C@@H]3CCCN3C)c3ccccc32)sc2ccc(Cl)cc12 | – | – | 11 | 87.5 | 11
64 | CN1CCC(c2cn(S(=O)(=O)c3ccc(Cl)c(Cl)c3)c3ccccc23)C1 (stereo not given) | – | – | – | 100 | 107
65 | O=S(=O)(c1ccccc1)n1cc(C2CCCNC2)c2ccccc21 (single isomer, unassigned; enantiomer 1) [listing 2 of 2 here] | – | – | 3 | – | –
66 | Cc1c(S(=O)(=O)n2cc(C[C@H]3CCCN3)c3ccccc32)sc2ccc(Cl)cc12 | – | – | 284 | – | –
67 | CN1CCC[C@H]1Cc1cn(S(=O)(=O)c2cccc(Cl)c2)c2ccccc12 | – | – | 4 | 77 | 96.2
68 | COc1ccc(S(=O)(=O)n2cc(C3CCN(C)C3)c3ccccc32)cc1OC (stereo not given) | – | – | – | 100 | 96.7
69 | O=S(=O)(c1ccc(Br)s1)n1cc(C2CCN(Cc3ccccc3)C2)c2ccccc21 (stereo not given) | – | – | – | 69 | 110
70 | COc1ccc(S(=O)(=O)n2cc(C[C@@H]3CCCN3C)c3ccccc32)cc1 | – | – | 19.3 | – | –
71 | O=S(=O)(c1ccc(Cl)c(Cl)c1)n1cc(C2=CCCNC2)c2ccccc21 | – | – | 48 | – | –
72 | O=S(=O)(c1ccc(Br)s1)n1cc(C[C@@H]2CCCN2)c2ccccc21 | – | – | 20 | – | –
73 | COc1ccc(S(=O)(=O)n2cc(C[C@@H]3CCCN3)c3ccccc32)cc1OC | – | – | 23 | – | –
